PubChem BioAssay (NCI)
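How tested: cells in 96-well plates exposed to compound for 48 hours at five concentrations. Abbreviation: GI50, concentration required for 50% inhibition of growth. TGI: concentration producing complete growth inhibition.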

Experiments:
Experiment in all cases: DTP human tumour cell line panel, 48 h
[1] = tested on: HCC-2998 colon
[2] = tested on: HOP-62 NSCLC
[3] = tested on: HS 578T breast
[4] = tested on: MDA-MB-435
[5] = tested on: MOLT-4 leukemia
[6] = tested on: NCI-H460 lung
[7] = tested on: NCI/ADR-RES ovarian
[8] = tested on: OVCAR-8 ovarian
[9] = tested on: SF-295 CNS
[10] = tested on: SK-MEL-2 melanoma

SMILES	GI50 [1] [µM]	TGI [1] [µM]	GI50 [2] [µM]	TGI [2] [µM]	GI50 [3] [µM]	TGI [3] [µM]	GI50 [4] [µM]	TGI [4] [µM]	GI50 [5] [µM]	TGI [5] [µM]	GI50 [6] [µM]	TGI [6] [µM]	GI50 [7] [µM]	TGI [7] [µM]	GI50 [8] [µM]	TGI [8] [µM]	GI50 [9] [µM]	TGI [9] [µM]	GI50 [10] [µM]	TGI [10] [µM]
COc1cc2nc(SCc3cc(OC)c(OC)c(OC)c3)n(Cc3ccccc3)c(=O)c2cc1OC	3.71	> 100	4.48	20.6	2.09	21.3	0.375	2.04	3.81	> 100	3.09	> 100	2.33	26.6	6.71	> 100	2.49	11.7	2.92	16.8
Cn1c(-c2c(N)n(Nc3cccc(Cl)c3)c3nc(C#N)c(C#N)nc23)nc2ccccc21	6.95	16.9	15.6	43.4	7.26	30.1	3.28	14	> 50	> 50	13.3	> 50	0.837	14.1	7.56	26.4	11	27.8	5.85	18.9
CC(C)c1c(-c2ccccc2)nc2c(C#N)c[nH]n2c1=O	29	> 100	25.4	> 95.7	29.7	99.6	31.1	> 100	32	> 100	32.6	> 100	31.2	> 100	32.2	> 100	28.7	> 84	27.7	78.8
CC(=O)Oc1ccc(C23c4ccccc4C2(OC(C)=O)c2cc(OC(C)=O)ccc23)cc1 (stereo not given)	2.91	8.46	8.78	34.5	2.93	> 100	4.9	25.6	7.27	72.2	12.3	44.4	2.82	10.2	4.28	49.5	4.37	20.4	27.7	94.3
Cn1c(C(=O)c2ccncc2)cc2ccccc21	> 100	> 100	> 100	> 100	65	> 100	> 100	> 100	54.4	> 100	> 100	> 100	46.8	> 100	46	> 100	> 100	> 100	> 100	> 100
O=C(O)c1ccc(NCn2nc(-c3ccccc3O)oc2=S)cc1	29.2	93.7	47.2	> 100	> 100	> 100	> 100	> 100	4.69	26.8	40.5	> 100	62.7	> 100	> 100	> 100	> 100	> 100	> 100	> 100
